{"source": "patent US8993256B2", "about": "“Fusion proteins and polynucleotide constructs to measure protein turn-over” (priority 2006, dated 2015)", "molecules": {"B1": {"name": "BDNF: growth factor used for translational induction (protein, UniProt P23560 19-247, looked up)", "Neurotrophic factor BDNF …": "APMKEANIRGQGGLAYPGVRTHGTLESVNGPKAGSRGLTSLADTFEHVIEELLDEDQKVRPNEENNKDADLYTSRVMLSSQVPLEPPLLFLLEEYKNYLDAANMSMRVRRHSDPARRGELSVCDSISEWVTAADKKTAVDMSGGTVTVLEKVPVSKGQLKQYFYETKCNPMGYTKEGCRGIDKRHWNSQCRTTQSYVRALTMDSKKRIGWRFIRIDTSCVCTLTIKRGR"}}, "key": {"HCV NS3 protease [1]": {"system": "HCV NS3 protease", "assay_type": "cell-based, hepatitis C virus", "details": "HEK293 cells grown with or without BILN-2061 (0, 1 μM, or 10 μM)", "from_the_text": "For testing of the drug-regulatable epitope tag concept by immunoblotting, a construct of linear fusions of PSD-95, HCV NS3 protease flanked on both sides by cleavage sites, an HA epitope tag, and the cyan fluorescent protein (CFP) was used.\nFor each construct, HEK293 cells were transfected with Lipofectamine 2000, grown with or without the NS3 protease inhibitor BILN-2061 (Lamarre et al., 2003), and immunoblotted after boiling/SDS lysis with anti-PSD-95 to differentiate uncleaved and cleaved products by molecular weight.\nExperiments using the constructs of the disclosure were performed in transiently transfected mammalian cells by immunoblotting."}, "[2]": {"target": "HSV-TimeSTAMPt-HA-dCaMKII (Hepatitis C virus genotype 1a, UniProt P27958)", "sequence (P27958 1027-1208)": "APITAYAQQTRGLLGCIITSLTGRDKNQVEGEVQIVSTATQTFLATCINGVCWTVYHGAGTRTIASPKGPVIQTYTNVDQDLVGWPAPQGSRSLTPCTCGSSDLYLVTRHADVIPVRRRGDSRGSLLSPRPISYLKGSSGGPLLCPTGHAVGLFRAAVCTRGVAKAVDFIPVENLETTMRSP", "assay_type": "in vivo, Drosophila melanogaster", "details": "adult flies, brains analyzed 6 hours after BILN-2061", "from_the_text": "Homozyous transformed lines were established from single progeny of embryos injected with pUAST-HSV-TimeSTAMPt-HA-dCaMKII or pUAST-HSV-TimeSTAMPa-HA-dCaMKII. […] Male homozygotes with third-chromosome insertions were crossed to elav-GAL4; UAS-tubulin-GFP; + females, and the male elavGAL4/Y; UAS-tubulin-GFP/+; HSV-TimeSTAMP-HA-dCaMKII/+ progeny were used for experiments within 2 days post-eclosion.\nFor experiments involving HSV-TimeSTAMPt-HA-dCaMKII, flies were anesthesized by carbon dioxide, then a hole was punctured in the medial ocellus region using a glass micropipette with a 10 μm bore and a 25 nL drop of 2 mM BILN-2061 in 20% DMSO 5% Cremophor EL in Hank's buffered saline solution (HBSS) was placed over the region. […] For HSV-TimeSTAMPa-HA-dCaMKII, flies were starved for 12 hours with only water, then placed in a vial with an emulsion of 30% (w/v) yeast, 30% (v/v) glycerol, 30% (v/v) water, 5% green food coloring, 5% dimethylformamide, and 500 μM BILN-2061. […] For analysis, flies were decapitated and brains were simultaneously dissected and fixed in HBSS with 4% paraformaldehyde and 0.2% Triton X-100 for 40 minutes at room temperature. Brains were processed for immunocytochemistry by standard methods and imaged on a Zeiss LSM510 or LSM5Live confocal microscope.\nTransgenic flies were generated expressing this fusion protein in all neurons."}, "HCV NS3 protease [3]": {"target": "HCV NS3 protease (Hepatitis C virus genotype 1a, UniProt P27958, T1080A)", "sequence (P27958 1027-1208 T1080A)": "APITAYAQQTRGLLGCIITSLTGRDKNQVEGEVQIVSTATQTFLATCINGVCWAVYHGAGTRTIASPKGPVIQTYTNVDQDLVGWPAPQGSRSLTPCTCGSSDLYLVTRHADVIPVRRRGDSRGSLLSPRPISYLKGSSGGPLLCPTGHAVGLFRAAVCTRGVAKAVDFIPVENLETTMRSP", "assay_type": "cell-based", "details": "TimeSTAMPa; hippocampal neurons 18 DIV, 9 DPT", "text": "(§1) Hippocampal neurons were dissected from postnatal day 0 or 1 rat pups and cultured in Neurobasal medium supplemented with B27 and glutamine. For immunoblotting experiments, neurons were transfected prior to plating using the Amaxa Nucleofector protocol. For other experiments, neurons were transfected at 7-10 DIV by calcium phosphate.\n(§2) To recapitulate endogenous mechanisms of mRNA localization and translation, the 5′ and 3′ untranslated regions of each gene were included in all constructs."}, "HCV NS3 protease [4]": {"target": "HCV NS3 protease (Hepatitis C virus genotype 1a, UniProt P27958)", "sequence (P27958 1027-1208)": "as the sequence (P27958 1027-1208) above", "assay_type": "cell-based", "details": "TimeSTAMPt; hippocampal neurons 18 DIV, 9 DPT", "text": "as §1, §2"}, "[5]": {"system": "new protein synthesis in neurons", "assay": "Dependence of TimeSTAMP tag appearance on new protein synthesis in neurons", "assay_type": "cell-based, rat", "details": "for HA-tagged Arc appearing after incubation in 10 μM BILN for 6 hours: Arc-TimeSTAMPa-HA neurons, 7 DIV, simultaneous treatment (cycloheximide 50 μg/mL or BDNF)", "text": "as §1, §2"}}}
{"molecule": "COc1ccc2c(O[C@@H]3C[C@H]4C(=O)N[C@]5(C(=O)O)C[C@H]5/C=C\\CCCCC[C@H](NC(=O)OC5CCCC5)C(=O)N4C3)cc(-c3csc(NC(C)C)n3)nc2c1", "note": "[BILN-2061]", "values": [{"measurement": "Cleavage of constructs containing the NS3 domain alone without NS4A cofactor (immunoblot)", "setting": "HCV NS3 protease [1]", "result": "inhibited"}, {"measurement": "HSV labelling for newly synthesized dCaMKII in fly brain", "setting": "[2]", "result": "HSV labelling for newly synthesized dCaMKII is present in the mushroom bodies"}, {"measurement": "HA immunofluorescence induction", "setting": "HCV NS3 protease [3]", "result": 20, "unit": "fold"}, {"measurement": "HA immunofluorescence induction", "setting": "HCV NS3 protease [4]", "result": 121, "unit": "fold"}]}
{"molecule": "C[C@@H]1C[C@@H]([C@H](O)CC2CC(=O)NC(=O)C2)C(=O)[C@@H](C)C1", "note": "[cycloheximide]", "values": [{"measurement": "Synaptic HA staining of PSD-95-GFP-TimeSTAMPa-HA after 6 hours of BILN-2061", "setting": "[5]; 50 μg/mL cycloheximide, 18 DIV neurons, 9 DPT", "result": "No staining"}, {"measurement": "HA-tagged Arc appearing after incubation in 10 μM BILN for 6 hours", "setting": "[5]", "result": "blocked"}]}
{"molecule": "B1", "values": [{"measurement": "HA-tagged Arc appearing after incubation in 10 μM BILN for 6 hours", "setting": "[5]", "result": "increased"}]}
